Data as given in patent US20240252638A1, “INDUCER FOR REPROGRAMMING T CELL INTO NK-LIKE CELL AND APPLICATION OF INDUCER” (ZHAOTAI IMMUGENE BIOMEDICINE (HONG KONG) LIMITED, priority 2021, published 2024).

Assays:
[1] = tested on: primary T cells in human umbilical cord blood; test: Detection of phenotypes of reprogrammed T cells through flow cytometry (NKp30/NKp46 expression); type: cell-based; details: for expression rate of NKp30 in CD4 T cells: drug concentrations of Table 1 (DAC 0.2 μM, GSK-3484862 2 μM, Mocetinostat 0.2 μM), DMSO group approximately 7.74%; for expression rate of NKp46 in CD8 T cells: DMSO group approximately 0.26%; for expression rate of NKp30 in CD8 T cells: DMSO group approximately 12.2%; for expression of NKp46 and NKp30 in CD4 and CD8 among induced T cells compared with DMSO: induced by a single inhibitor until Day5; for expression of NKp46 and NKp30 in CD4 and CD8 among induced T cells compared with DMSO / induction of T cells to reprogram into NK-like cells: concentrations of Table 1; for induction of T cells to reprogram into NK-like cells: induced until Day5
Description: In this example, umbilical cord blood mononuclear cells (UCBMCs) were separated from the umbilical cord blood through Ficoll-hypaque (polysucrose-meglumine diatrizoate) density gradient centrifugation, 4×10^7 CD3 positive UCBMCs were taken and cultured overnight with a cell density of 2×10^6 cells/mL, remaining UCBMCs were frozen, and T cells were sorted by the Pan T cell isolation kit and cultured for a period of time to obtain ≥4×10^7 CD3 positive T cells with a viability rate of ≥70% and without contamination by exogenous microorganisms such as bacteria, fungi and mycoplasmas.
(1) T cells activated by TransAct for 36 h were taken and centrifuged at 300 g for 5 min, the T cells were resuspended with an IMDM+5% FBS+1% double antibody (a 100×penicillin-streptomycin mixed solution)+IL2 (300 U), and a T cell density was adjusted to (2−3)×10^5 cells/mL.
(2) Groups of small molecule inhibitor drugs were added to the resuspended T cells, respectively. Half of media were changed every day, and extra new drugs were added according to volumes obtained after the media were changed. A day when the drugs were initially added was denoted as Day0, and when the drugs continued to be added until Day5, the mixtures were centrifuged at 300 g for 5 min, and the media were changed. Then, the cells continued to be cultured with an IMDM+5% FBS+1% double antibody (a 100×penicillin-streptomycin mixed solution).
(1) 200 μL each of the T cells induced by DAC until Day6, the T cells induced by GSK-3484862 until Day 6, the T cells co-induced by DAC and Mocetinostat until Day6, the T cells co-induced by GSK-3484862 and Mocetinostat until Day6 and the untreated T cells were taken and centrifuged at 400 g for 4 min. After supernatant was discarded, 50 μL phosphate buffer (PBS) was added to resuspend the cells. Then, 0.5 μL each of CD3 PE-Cy7, CD4 APC-Cy7, CD8 FITC, NKp30 PE and NKp46 APC were added to each of the mixtures and incubated for 30 min at 4° C. in the dark, 500 μL PBS was added to dilute the antibody and centrifuged at 400 g for 4 min, supernatant was carefully discarded, and 300 μL PBS was added to resuspend the cells, transferred to a flow tube and loaded on a flow cytometer.
(2) Data analysis was performed by BD-flowcyto analysis software, and 10000 cells were collected in each tube. The appearance of a significant increase in NKp-30 and the appearance of an NKp46-positive cell population were used as signs of successful reprogramming, and a percentage of positive T cells was calculated.
In addition, the T cells induced by GSK-3484862 until Day5, the T cells induced by Tazemetostat until Day5, the T cells induced by GSK126 until Day5, the T cells co-induced by Tazemetostat and GSK-3484862 until Day5, the T cells co-induced by GSK-3484862 and GSK126 until Day5 and the untreated T cells were taken and subjected to the same operations, and phenotypes of the reprogrammed T cells were identified through flow cytometry. The results are shown in FIGS. 9A, 9B, 10A, 10B, 11A, 11B, 12A, 12B, 13A, 13B, 14A and 14B.

[2] = tested on: K562 cells (human chronic myeloid leukemia cells); test: In vitro killing detection of reprogrammed T cells (luciferase); type: cell-based; details: effector-target ratios 16:1 to 1:4, co-cultured 24 h, vs T cells treated by DMSO
Description: (1) The T cells induced by GSK-3484862, the T cells induced by DAC, the T cells induced by Mocetinostat, the T cells co-induced by GSK-3484862 and Mocetinostat, the T cells co-induced by DAC and Mocetinostat and the T cells treated by DMSO were mixed with 1×10^4 K562 cells (human chronic myeloid leukemia cells) according to different effector-target ratios (16:1, 8:1, 4:1, 2:1, 1:1, 1:2 and 1:4), respectively, and added to a 96-well cell culture plate. Three duplicate wells were set for each group, and a group with the addition of tumor cells alone was set as a positive control. After centrifugation at 250×g for 5 min, the cells were placed in a 5% CO2 incubator at 37° C. and co-cultured for 24 h.
(2) After 24 h, 100 μL/well luciferase substrate (1×) was added to the 96-well cell culture plate, and the cells were resuspended and uniformly mixed. RLU (Relative light units) were immediately measured by a multifunctional microplate reader for 0.1 s. A killing proportion calculation formula of a quantitative killing efficiency assessment method using a luciferase is as follows:
100%×(control well reading-experimental well reading)/control well reading (blank group (without the addition of the cells) reading may be ignored).
In addition, according to the same method, the T cells induced by GSK-3484862, the T cells induced by Tazemetostat, the T cells induced by GSK126, the T cells co-induced by GSK-3484862 and Tazemetostat and the T cells co-induced by GSK-3484862 and GSK-126 were separately used and the T cells treated by DMSO was used as a control to detect killing abilities of the reprogrammed T cells against K562 cells.

[3] = tested on: reprogrammed T cells co-cultured with K562; test: Secretion of cytokines IFN-γ and granzyme B by reprogrammed T cells co-cultured with K562 (ELISA); type: cell-based, human; details: co-cultured with K562 for 48 h, supernatant
Experimental: The T cells induced by DAC, the T cells induced by GSK-3484862, the T cells co-induced by DAC and Mocetinostat, the T cells co-induced by GSK-3484862 and Mocetinostat and the T cells treated by DMSO were co-cultured with human chronic myeloid leukemia cells K562 for 48 h, respectively, and expression levels of cytokines IFN-γ and a granzyme B in supernatant were detected through ELISA.

[4] = T cells induced until Day6, drug concentrations of Table 1

## Nc1ncn([C@H]2C[C@H](O)[C@@H](CO)O2)c(=O)n1 [DAC, decitabine]
[1]; T cells induced until Day6
  expression rate of NKp30 in CD4 T cells: approximately 83.2%
[1]; [4]
  expression rate of NKp46 in CD8 T cells: approximately 11.2%
  expression rate of NKp30 in CD8 T cells: approximately 60.5%

## CC[C@H](C)n1cc(C)c2c(C(=O)NCc3c(C)cc(C)[nH]c3=O)cc(-c3ccc(N4CCNCC4)nc3)cc21 [GSK126]
[2]
  in vitro killing of K562 by induced T cells: effectively kill
[1]
  expression of NKp46 and NKp30 in CD4 and CD8 among induced T cells compared with DMSO: significantly expressed
  induction of T cells to reprogram into NK-like cells: can induce the T cells to reprogram into NK-like cells

## CCc1c(C#N)c(SC(C(N)=O)c2ccccc2)nc(N(C)C)c1C#N (stereo not drawn) [GSK-3484862]
[2]
  in vitro killing of K562 by induced T cells: effectively kill
[3]
  IFN-γ and granzyme B secreted by induced T cells (immune effect): produce an immune effect
[1]; [4]
  expression rate of NKp46 in CD4 T cells: approximately 5.16%
  expression rate of NKp46 in CD8 T cells: approximately 21.4%
  expression rate of NKp30 in CD8 T cells: approximately 50.8%
[1]; T cells induced until Day6
  expression rate of NKp30 in CD4 T cells: approximately 81.4%
[1]
  expression of NKp46 and NKp30 in CD4 and CD8 among induced T cells compared with DMSO: significantly expressed
  induction of T cells to reprogram into NK-like cells: can induce the T cells to reprogram into NK-like cells

## Nc1ccccc1NC(=O)c1ccc(CNc2nccc(-c3cccnc3)n2)cc1 [Mocetinostat]
[2]
  in vitro killing of K562 by induced T cells: effectively kill
